Source: PubChem BioAssay AID1918996 (Molecular Pharmacology Branch, DTP, NCI, 2023)
Several values for one entry are separate records, joined by “and”; a condition that tells them apart may be missing. Identical values can stand only once.

Test system: 349418-098-R-PDC complex spheroid growth
Experiment: Anticancer human tumor 349418-098-R-PDC patient-derived lung adenocarcinoma cell line growth inhibition [AhR]
Settings: for viability, T/C: stronger effect = lower value
Summary of the method: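 Complex tumor spheroids co-cultured with HUVEC and human MSC stroma; AhR antagonists tested in combination with standard-of-care and investigational agents. Top concentration at or near clinical Cmax (else 10 microM), half-log dilutions; growth expressed as percent test/control.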

[1] = curve of first compound, second compound 0.1 µM
[2] = curve of first compound, second compound 0.316 µM
[3] = curve of first compound, second compound 1 µM
[4] = curve of first compound, second compound 3.16 µM
[5] = curve of first compound, second compound 10 µM
[6] = second compound 0.1 µM, first compound 0.00949 µM
[7] = second compound 0.1 µM, first compound 0.03 µM
[8] = second compound 0.1 µM, first compound 0.0949 µM
[9] = second compound 0.1 µM, first compound 0.3 µM
[10] = second compound 0.316 µM, first compound 0.00949 µM
[11] = second compound 0.316 µM, first compound 0.03 µM
[12] = second compound 0.316 µM, first compound 0.0949 µM
[13] = second compound 0.316 µM, first compound 0.3 µM
[14] = second compound 1 µM, first compound 0.00949 µM
[15] = second compound 1 µM, first compound 0.03 µM
[16] = second compound 1 µM, first compound 0.0949 µM
[17] = second compound 1 µM, first compound 0.3 µM
[18] = second compound 3.16 µM, first compound 0.00949 µM
[19] = second compound 3.16 µM, first compound 0.03 µM
[20] = second compound 3.16 µM, first compound 0.0949 µM
[21] = second compound 3.16 µM, first compound 0.3 µM
[22] = second compound 10 µM, first compound 0.00949 µM
[23] = second compound 10 µM, first compound 0.03 µM
[24] = second compound 10 µM, first compound 0.0949 µM
[25] = second compound 10 µM, first compound 0.3 µM
[26] = second compound 0.1 µM, first compound 0.0316 µM
[27] = second compound 0.1 µM, first compound 0.1 µM
[28] = second compound 0.1 µM, first compound 0.316 µM
[29] = second compound 0.1 µM, first compound 1 µM
[30] = second compound 0.1 µM, first compound 3.16 µM
[31] = second compound 0.1 µM, first compound 10 µM
[32] = second compound 0.316 µM, first compound 0.0316 µM
[33] = second compound 0.316 µM, first compound 0.1 µM
[34] = second compound 0.316 µM, first compound 0.316 µM
[35] = second compound 0.316 µM, first compound 1 µM
[36] = second compound 0.316 µM, first compound 3.16 µM
[37] = second compound 0.316 µM, first compound 10 µM
[38] = second compound 1 µM, first compound 0.0316 µM
[39] = second compound 1 µM, first compound 0.1 µM
[40] = second compound 1 µM, first compound 0.316 µM
[41] = second compound 1 µM, first compound 1 µM
[42] = second compound 1 µM, first compound 3.16 µM
[43] = second compound 1 µM, first compound 10 µM
[44] = second compound 3.16 µM, first compound 0.0316 µM
[45] = second compound 3.16 µM, first compound 0.1 µM
[46] = second compound 3.16 µM, first compound 0.316 µM
[47] = second compound 3.16 µM, first compound 1 µM
[48] = second compound 3.16 µM, first compound 3.16 µM
[49] = second compound 3.16 µM, first compound 10 µM
[50] = second compound 10 µM, first compound 0.0316 µM
[51] = second compound 10 µM, first compound 0.1 µM
[52] = second compound 10 µM, first compound 0.316 µM
[53] = second compound 10 µM, first compound 1 µM
[54] = second compound 10 µM, first compound 3.16 µM
[55] = second compound 10 µM, first compound 10 µM
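Also: spheroids exposed to agents for seven days before luminescence viability read.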
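For viability, T/C in this document: spheroids also contain HUVEC endothelial cells and human MSC stroma.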

O=C(C=Cn1cnc(-c2cc(C(F)(F)F)cc(C(F)(F)F)c2)n1)NNc1cnccn1 + Cc1ccccc1N=Nc1ccc(NC(=O)c2ccnn2C)c(C)c1
IC50 [1]: 17.6 nM
IC50 [2]: < 9.49 nM
IC50 [3]: < 9.49 nM
IC50 [4]: < 9.49 nM
IC50 [5]: < 9.49 nM
viability, T/C [6]: 67.2%
viability, T/C [7]: 35.2%
viability, T/C [8]: 17.2%
viability, T/C [9]: 11.2%
viability, T/C (second compound 0.1 µM, first compound 0.949 µM): 9.1%
viability, T/C (second compound 0.1 µM, first compound 3 µM): 7.11%
viability, T/C [10]: 37.7%
viability, T/C [11]: 25.4%
viability, T/C [12]: 16.2%
viability, T/C [13]: 12.2%
viability, T/C (second compound 0.316 µM, first compound 0.949 µM): 10.2%
viability, T/C (second compound 0.316 µM, first compound 3 µM): 5.73%
viability, T/C [14]: 37.8%
viability, T/C [15]: 29.9%
viability, T/C [16]: 19.4%
viability, T/C [17]: 11.9%
viability, T/C (second compound 1 µM, first compound 0.949 µM): 8.42%
viability, T/C (second compound 1 µM, first compound 3 µM): 5.99%
viability, T/C [18]: 47.9%
viability, T/C [19]: 33.7%
viability, T/C [20]: 16.9%
viability, T/C [21]: 11.4%
viability, T/C (second compound 3.16 µM, first compound 0.949 µM): 8.44%
viability, T/C (second compound 3.16 µM, first compound 3 µM): 7.46%
viability, T/C [22]: 34.6%
viability, T/C [23]: 22.8%
viability, T/C [24]: 18.5%
viability, T/C [25]: 13.8%
viability, T/C (second compound 10 µM, first compound 0.949 µM): 9.78%
viability, T/C (second compound 10 µM, first compound 3 µM): 7.95%

CC(C)CC(NC(=O)C(Cc1ccccc1)NC(=O)c1cnccn1)B(O)O (stereo not drawn)
viability, T/C (compound 0.000949 µM): 52.6% and 44.3% and 19.1%
viability, T/C (compound 0.003 µM): 10.6% and 12.6% and 7.27%
viability, T/C (compound 0.00949 µM): 1.45% and 2.68% and 2.76%
viability, T/C (compound 0.03 µM): 0.95% and 1.46% and 2.12%
viability, T/C (compound 0.0949 µM): 0.72% and 2.31% and 2.54%
viability, T/C (compound 0.3 µM): 0.73% and 2.25% and 1.49%
IC50 (curve of compound): 1.02 nM and < 0.949 nM

Nc1ncn(C2CC(O)C(CO)O2)c(=O)n1 (stereo not drawn)
viability, T/C (compound 0.00316 µM): 105% and 99.7% and 103%
viability, T/C (compound 0.01 µM): 103% (2×) and 68.3%
viability, T/C (compound 0.0316 µM): 80% and 57.7% and 46.6%
viability, T/C (compound 0.1 µM): 67% and 49.8% and 46.6%
viability, T/C (compound 0.316 µM): 38.9% and 42.3% and 32.5%
viability, T/C (compound 1 µM): 32.3% and 31.3% and 26.1%
IC50 (curve of compound): 204 nM and 54 nM and 32.5 nM

Nc1ncn(C2CC(O)C(CO)S2)c(=O)n1 (stereo not drawn)
viability, T/C (compound 0.000949 µM): 97.2% and 92.9% and 82.7%
viability, T/C (compound 0.003 µM): 99.2% and 94.3% and 81.9%
viability, T/C (compound 0.00949 µM): 96.8% and 87.4% and 85.6%
viability, T/C (compound 0.03 µM): 73.7% and 78.3% and 64.3%
viability, T/C (compound 0.0949 µM): 51.7% and 54.9% and 55.8%
viability, T/C (compound 0.3 µM): 29% and 31.2% and 26.1%
IC50 (curve of compound): 94.1 nM and 121 nM and 111 nM

Nc1ncn(C2CC(O)C(CO)S2)c(=O)n1 (stereo not drawn) + CC(CO)NC(=O)c1cc(-c2ccc(Cl)cc2)nn(-c2cnn(C)c2)c1=O
IC50 [1]: 87.6 nM
IC50 [2]: 32.4 nM
IC50 [3]: 45.7 nM
IC50 [4]: 24.9 nM
IC50 [5]: 19.9 nM
viability, T/C (second compound 0.1 µM, first compound 0.000949 µM): 86.5%
viability, T/C (second compound 0.1 µM, first compound 0.003 µM): 85.5%
viability, T/C [6]: 56.2%
viability, T/C [7]: 62.2%
viability, T/C [8]: 60.8%
viability, T/C [9]: 31.9%
viability, T/C (second compound 0.316 µM, first compound 0.000949 µM): 72.6%
viability, T/C (second compound 0.316 µM, first compound 0.003 µM): 118%
viability, T/C [10]: 68.8%
viability, T/C [11]: 52.6%
viability, T/C [12]: 47.8%
viability, T/C [13]: 27.4%
viability, T/C (second compound 1 µM, first compound 0.000949 µM): 96.4%
viability, T/C (second compound 1 µM, first compound 0.003 µM): 68.9%
viability, T/C [14]: 90.5%
viability, T/C [15]: 53.7%
viability, T/C [16]: 37.8%
viability, T/C [17]: 21.4%
viability, T/C (second compound 3.16 µM, first compound 0.000949 µM): 86.1%
viability, T/C (second compound 3.16 µM, first compound 0.003 µM): 58%
viability, T/C [18]: 66.5%
viability, T/C [19]: 47%
viability, T/C [20]: 39.9%
viability, T/C [21]: 24.2%
viability, T/C (second compound 10 µM, first compound 0.000949 µM): 53.5%
viability, T/C (second compound 10 µM, first compound 0.003 µM): 71.8%
viability, T/C [22]: 60%
viability, T/C [23]: 43.1%
viability, T/C [24]: 33.3%
viability, T/C [25]: 24.5%

COc1ccc([C@@H](O)c2cc(-c3ncnc4cc(N5CCOCC5)ccc34)c(F)cc2Cl)nn1 + Cc1cncc(-c2nc(NCCc3c[nH]c4ccccc34)c3ncn(C(C)C)c3n2)c1
IC50 [1]: 4010 nM
IC50 [2]: 3970 nM
IC50 [3]: 3840 nM
IC50 [4]: < 31.6 nM
IC50 [5]: < 31.6 nM
viability, T/C [26]: 100%
viability, T/C [27]: 101%
viability, T/C [28]: 92.5%
viability, T/C [29]: 88.8%
viability, T/C [30]: 58.1%
viability, T/C [31]: 16.8%
viability, T/C [32]: 103%
viability, T/C [33]: 94.7%
viability, T/C [34]: 89.9%
viability, T/C [35]: 93.3%
viability, T/C [36]: 58.8%
viability, T/C [37]: 14.1%
viability, T/C [38]: 81%
viability, T/C [39]: 79.7%
viability, T/C [40]: 80.5%
viability, T/C [41]: 68.2%
viability, T/C [42]: 57.9%
viability, T/C [43]: 19.4%
viability, T/C [44]: 16.5%
viability, T/C [45]: 16.7%
viability, T/C [46]: 12.7%
viability, T/C [47]: 12.5%
viability, T/C [48]: 11.9%
viability, T/C [49]: 9.7%
viability, T/C [50]: 0.93%
viability, T/C [51]: 0.92%
viability, T/C [52]: 1.03%
viability, T/C [53]: 1.37%
viability, T/C [54]: 1.91%
viability, T/C [55]: 3.18%

COc1cc(Nc2ncc3c(n2)-c2ccc(Cl)cc2C(c2c(F)cccc2OC)=NC3)ccc1C(=O)O + Cc1ccccc1N=Nc1ccc(NC(=O)c2ccnn2C)c(C)c1
IC50 [1]: 105 nM
IC50 [2]: 157 nM
IC50 [3]: 65.7 nM
IC50 [4]: < 31.6 nM
IC50 [5]: < 31.6 nM
viability, T/C [26]: 70.5%
viability, T/C [27]: 50.9%
viability, T/C [28]: 30.5%
viability, T/C [29]: 30.8%
viability, T/C [30]: 33.5%
viability, T/C [31]: 31.1%
viability, T/C [32]: 64.8%
viability, T/C [33]: 63%
viability, T/C [34]: 29.8%
viability, T/C [35]: 28.5%
viability, T/C [36]: 23.4%
viability, T/C [37]: 26%
viability, T/C [38]: 71.8%
viability, T/C [39]: 36.6%
viability, T/C [40]: 34.4%
viability, T/C [41]: 32.3%
viability, T/C [42]: 30.5%
viability, T/C [43]: 26.5%
viability, T/C [44]: 48.7%
viability, T/C [45]: 38.1%
viability, T/C [46]: 32.2%
viability, T/C [47]: 27.1%
viability, T/C [48]: 26.8%
viability, T/C [49]: 26.6%
viability, T/C [50]: 38.9%
viability, T/C [51]: 29.7%
viability, T/C [52]: 32.2%
viability, T/C [53]: 27.1%
viability, T/C [54]: 23.6%
viability, T/C [55]: 27.1%

CCc1c2c(nc3ccc(O)cc13)-c1cc3c(c(=O)n1C2)COC(=O)[C@]3(O)CC
viability, T/C (compound 0.000949 µM): 55.3% and 67.2% and 40.5%
viability, T/C (compound 0.003 µM): 43.4% and 54.1% and 42.9%
viability, T/C (compound 0.00949 µM): 20.6% and 16% and 22.3%
viability, T/C (compound 0.03 µM): 7.29% and 12% and 8.26%
viability, T/C (compound 0.0949 µM): 3.4% and 8.26% and 6.22%
viability, T/C (compound 0.3 µM): 1.91% and 6.96% and 4.74%
IC50 (curve of compound): 1.58 nM and 3.39 nM and < 0.949 nM
